ChEMBL document CHEMBL1649312, “Absence of association between piperaquine in vitro responses and polymorphisms in the pfcrt, pfmdr1, pfmrp, and pfnhe genes in Plasmodium falciparum” (Antimicrob Agents Chemother, 2010)

Columns and labels:
Type in all cases: functional, organism-based
Plasmodium falciparum [1] = test: Antimalarial activity against Plasmodium falciparum IMT 9881 harboring Ppcrt I371R mutant gene assessed as incorporation of [3]H hypoxanthine after 48 hrs by scintillation counter; conditions: IMT 9881, 48 h
Plasmodium falciparum [2] = test: Antimalarial activity against Plasmodium falciparum IMT 10336 harboring Pfcrt Q271E mutant gene and Ppcrt I371R mutant gene assessed as incorporation of [3]H hypoxanthine after 48 hrs by scintillation counter; conditions: IMT 10336, 48 h
Plasmodium falciparum [3] = test: Antimalarial activity against Plasmodium falciparum IMT 10354 harboring Ppcrt M74I, N75E, K76T, A220S mutant gene, Pmdr1 D1246Y mutant gene assessed as incorporation of [3]H hypoxanthine after 48 hrs by scintillation counter; conditions: IMT 10354, 48 h
Plasmodium falciparum [4] = test: Antimalarial activity against Plasmodium falciparum IMT 10500 harboring Pfcrt Q271E mutant gene and Ppcrt I371R mutant gene and Pfnhe-1 ms4760 microsatellite mutant assessed as incorporation of [3]H hypoxanthine after 48 hrs by scintillation counter; conditions: IMT 10500, 48 h
Plasmodium falciparum [5] = test: Antimalarial activity against Plasmodium falciparum IMT 16332 harboring Ppcrt M74I, N75E, K76T, A220S, Q271E mutant gene, Pmdr1 N86Y mutant gene assessed as incorporation of [3]H hypoxanthine after 48 hrs by scintillation counter; conditions: IMT 16332, 48 h
Plasmodium falciparum [6] = test: Antimalarial activity against Plasmodium falciparum IMT K14 harboring Ppcrt M74I, N75E, K76T, A220S, Q271E, N326S mutant gene, Pmdr1 Y184F, S1034C, N1042D, D1246Y mutant gene and Pfmrp H191Y and S437A mutant gene assessed as incorporation of [3]H hypoxanthine after 48 hrs by scintillation counter; conditions: IMT K14, 48 h
Plasmodium falciparum [7] = test: Antimalarial activity against Plasmodium falciparum IMT K2 harboring Ppcrt M74I, N75E, K76T, A220S, Q271E, N326S mutant gene, Pmdr1 S1034C, N1042D mutant gene and Pfmrp H191Y and S437A mutant gene assessed as incorporation of [3]H hypoxanthine after 48 hrs by scintillation counter; conditions: IMT K2, 48 h
Plasmodium falciparum [8] = test: Antimalarial activity against Plasmodium falciparum IMT K4 harboring Ppcrt M74I, N75E, K76T, A220S, Q271E, N326S mutant gene, Pmdr1 S1034C, N1042D mutant gene and Pfmrp H191Y and S437A mutant gene assessed as incorporation of [3]H hypoxanthine after 48 hrs by scintillation counter; conditions: IMT K4, 48 h
Plasmodium falciparum [9] = test: Antimalarial activity against Plasmodium falciparum IMT L1 harboring Ppcrt M74I, N75E, K76T, A220S, Q271E mutant gene, Pmdr1 N86Y mutant gene and Pfmrp H191Y and S437A mutant gene assessed as incorporation of [3]H hypoxanthine after 48 hrs by scintillation counter; conditions: IMT L1, 48 h
Plasmodium falciparum [10] = test: Antimalarial activity against Plasmodium falciparum IMT Vol harboring Ppcrt M74I, N75E, K76T, A220S, Q271E, N326S mutant gene, Pmdr1 N86Y mutant gene and Pfmrp H191Y and S437A mutant gene assessed as incorporation of [3]H hypoxanthine after 48 hrs by scintillation counter
Plasmodium falciparum [11] = test: Antimalarial activity against Plasmodium falciparum 3D7 harboring Ppcrt I371R mutant gene and Pfnhe-1 ms4760 microsatellite mutant assessed as incorporation of [3]H hypoxanthine after 48 hrs by scintillation counter; conditions: 3D7, 48 h
Plasmodium falciparum [12] = test: Antimalarial activity against Plasmodium falciparum 3D7 assessed as inhibition of [3H] incorporation after 48 hrs by scintillation counter
Plasmodium falciparum [13] = test: Antimalarial activity against Plasmodium falciparum W2 assessed as inhibition of [3H] incorporation after 48 hrs by scintillation counter
Plasmodium falciparum [14] = test: Antimalarial activity against Plasmodium falciparum D6 assessed as inhibition of [3H] incorporation after 48 hrs by scintillation counter
Plasmodium falciparum [15] = test: Antimalarial activity against Plasmodium falciparum FCM29 assessed as inhibition of [3H] incorporation after 48 hrs by scintillation counter
Plasmodium falciparum [16] = test: Antimalarial activity against Plasmodium falciparum FCR3 assessed as inhibition of [3H] incorporation after 48 hrs by scintillation counter
Plasmodium falciparum [17] = test: Antimalarial activity against Plasmodium falciparum PA assessed as inhibition of [3H] incorporation after 48 hrs by scintillation counter
Plasmodium falciparum [18] = test: Antimalarial activity against Plasmodium falciparum IMT Bres assessed as inhibition of [3H] incorporation after 48 hrs by scintillation counter
Plasmodium falciparum [19] = test: Antimalarial activity against Plasmodium falciparum IMT A4 assessed as inhibition of [3H] incorporation after 48 hrs by scintillation counter
Plasmodium falciparum [20] = test: Antimalarial activity against Plasmodium falciparum IMT 31 assessed as inhibition of [3H] incorporation after 48 hrs by scintillation counter
Plasmodium falciparum [21] = test: Antimalarial activity against Plasmodium falciparum IMT 8425 assessed as inhibition of [3H] incorporation after 48 hrs by scintillation counter
Plasmodium falciparum [22] = test: Antimalarial activity against Plasmodium falciparum IMT 9881 assessed as inhibition of [3H] incorporation after 48 hrs by scintillation counter
Plasmodium falciparum [23] = test: Antimalarial activity against Plasmodium falciparum IMT 10336 assessed as inhibition of [3H] incorporation after 48 hrs by scintillation counter
Plasmodium falciparum [24] = test: Antimalarial activity against Plasmodium falciparum IMT 10354 assessed as inhibition of [3H] incorporation after 48 hrs by scintillation counter
Plasmodium falciparum [25] = test: Antimalarial activity against Plasmodium falciparum IMT 10500 assessed as inhibition of [3H] incorporation after 48 hrs by scintillation counter
Plasmodium falciparum [26] = test: Antimalarial activity against Plasmodium falciparum IMT 16332 assessed as inhibition of [3H] incorporation after 48 hrs by scintillation counter
Plasmodium falciparum [27] = test: Antimalarial activity against Plasmodium falciparum IMT K14 assessed as inhibition of [3H] incorporation after 48 hrs by scintillation counter
Plasmodium falciparum [28] = test: Antimalarial activity against Plasmodium falciparum IMT K2 assessed as inhibition of [3H] incorporation after 48 hrs by scintillation counter
Plasmodium falciparum [29] = test: Antimalarial activity against Plasmodium falciparum IMT K4 assessed as inhibition of [3H] incorporation after 48 hrs by scintillation counter
Plasmodium falciparum [30] = test: Antimalarial activity against Plasmodium falciparum IMT L1 assessed as inhibition of [3H] incorporation after 48 hrs by scintillation counter
Plasmodium falciparum [31] = test: Antimalarial activity against Plasmodium falciparum IMT Vol assessed as inhibition of [3H] incorporation after 48 hrs by scintillation counter
Plasmodium falciparum [32] = test: Antimalarial activity against Plasmodium falciparum W2 harboring Ppcrt M74I, N75E, K76T, A220S, Q271E, N326S and I356T mutant gene, Pmdr1 N86Y mutant gene and Pfmrp H191Y and S437A mutant gene assessed as incorporation of [3]H hypoxanthine after 48 hrs by scintillation counter; conditions: W2, 48 h
Plasmodium falciparum [33] = test: Antimalarial activity against Plasmodium falciparum D6 harboring Ppcrt I371R mutant gene assessed as incorporation of [3]H hypoxanthine after 48 hrs by scintillation counter; conditions: D6, 48 h
Plasmodium falciparum [34] = test: Antimalarial activity against Plasmodium falciparum FCM29 harboring Ppcrt M74I, N75E, K76T, A220S, Q271E, N326S and I356T mutant gene, Pmdr1 N86Y mutant gene and Pfmrp H191Y and S437A mutant gene assessed as incorporation of [3]H hypoxanthine after 48 hrs by scintillation counter; conditions: FCM29, 48 h
Plasmodium falciparum [35] = test: Antimalarial activity against Plasmodium falciparum FCR3 harboring Ppcrt M74I, N75E, K76T, A220S, Q271E, N326S and I356T mutant gene, Pmdr1 N86Y mutant gene and Pfmrp H191Y and S437A mutant gene assessed as incorporation of [3]H hypoxanthine after 48 hrs by scintillation counter; conditions: FCR3, 48 h
Plasmodium falciparum [36] = test: Antimalarial activity against Plasmodium falciparum PA harboring Ppcrt M74I, N75E, K76T, A220S, Q271E, N326S and I356T mutant gene, Pmdr1 N86Y mutant gene and Pfmrp H191Y and S437A mutant gene assessed as incorporation of [3]H hypoxanthine after 48 hrs by scintillation counter
Plasmodium falciparum [37] = test: Antimalarial activity against Plasmodium falciparum HB3 harboring Ppcrt I371R mutant gene and Pfmdr1 Y184F mutant gene assessed as incorporation of [3]H hypoxanthine after 48 hrs by scintillation counter; conditions: HB3, 48 h
Plasmodium falciparum [38] = test: Antimalarial activity against Plasmodium falciparum 106/1 harboring Ppcrt M74I, N75E, K76T, A220S, Q271E, N326S and I356T mutant gene, Pmdr1 N86Y mutant gene and Pfmrp H191Y and S437A mutant gene assessed as incorporation of [3]H hypoxanthine after 48 hrs by scintillation counter; conditions: 106/1, 48 h
Plasmodium falciparum [39] = test: Antimalarial activity against Plasmodium falciparum IMT Bres harboring Ppcrt M74I, N75E, K76T, A220S, Q271E, N326S and I356T mutant gene, Pmdr1 N86Y mutant gene and Pfmrp H191Y and S437A mutant gene assessed as incorporation of [3]H hypoxanthine after 48 hrs by scintillation counter
Plasmodium falciparum [40] = test: Antimalarial activity against Plasmodium falciparum IMT Guy harboring Ppcrt K76T, A220S, N326D and I371R mutant gene, Pmdr1 […], 1042D and D1246Y, mutant gene and Pfmrp H191Y and S437A mutant gene and Pfnhe-1 ms4760 microsatellite mutant assessed as incorporation of [3]H hypoxanthine after 48 hrs by scintillation counter
Plasmodium falciparum [41] = test: Antimalarial activity against Plasmodium falciparum IMT A4 harboring Ppcrt M74I, N75E, K76T, […], Q271E, N326S and I356T mutant gene, Pmdr1 Y184F, N1042D, D1246Y mutant gene assessed as incorporation of [3]H hypoxanthine after 48 hrs by scintillation counter; conditions: IMT A4, 48 h
Plasmodium falciparum [42] = test: Antimalarial activity against Plasmodium falciparum IMT 31 harboring Ppcrt I371R mutant gene assessed as incorporation of [3]H hypoxanthine after 48 hrs by scintillation counter; conditions: IMT 31, 48 h
Plasmodium falciparum [43] = test: Antimalarial activity against Plasmodium falciparum IMT 8425 harboring Ppcrt I371R mutant gene and Pfnhe-1 ms4760 microsatellite mutant assessed as incorporation of [3]H hypoxanthine after 48 hrs by scintillation counter; conditions: IMT 8425, 48 h
Plasmodium falciparum [44] = test: Antimalarial activity against Plasmodium falciparum HB3 assessed as inhibition of [3H] incorporation after 48 hrs by scintillation counter
Plasmodium falciparum [45] = test: Antimalarial activity against Plasmodium falciparum 106/1 assessed as inhibition of [3H] incorporation after 48 hrs by scintillation counter
Plasmodium falciparum [46] = test: Antimalarial activity against Plasmodium falciparum IMT Guy assessed as inhibition of [3H] incorporation after 48 hrs by scintillation counter

## C[C@H]1[C@@H](O)O[C@@H]2O[C@@]3(C)CC[C@H]4[C@H](C)CC[C@@H]1[C@@]24OO3 [ARTENIMOL]
Plasmodium falciparum [1]
  IC50: 3.5 nM
Plasmodium falciparum [2]
  IC50: 1.6 nM
Plasmodium falciparum [3]
  IC50: 0.4 nM
Plasmodium falciparum [4]
  IC50: 3.3 nM
Plasmodium falciparum [5]
  IC50: 1.1 nM
Plasmodium falciparum [6]
  IC50: 2.1 nM
Plasmodium falciparum [7]
  IC50: 1.2 nM
Plasmodium falciparum [8]
  IC50: 3.4 nM
Plasmodium falciparum [9]
  IC50: 0.9 nM
Plasmodium falciparum [10]
  IC50: 1.2 nM
Plasmodium falciparum [11]
  IC50: 2.8 nM
Plasmodium falciparum [12]
  IC50: 2.8 nM
Plasmodium falciparum [13]
  IC50: 3 nM
Plasmodium falciparum [14]
  IC50: 1.4 nM
Plasmodium falciparum [15]
  IC50: 1.3 nM
Plasmodium falciparum [16]
  IC50: 1.6 nM
Plasmodium falciparum [17]
  IC50: 1.4 nM
Plasmodium falciparum [18]
  IC50: 1.4 nM
Plasmodium falciparum [19]
  IC50: 1.5 nM
Plasmodium falciparum [20]
  IC50: 1.7 nM
Plasmodium falciparum [21]
  IC50: 1.7 nM
Plasmodium falciparum [22]
  IC50: 3.5 nM
Plasmodium falciparum [23]
  IC50: 1.6 nM
Plasmodium falciparum [24]
  IC50: 0.4 nM
Plasmodium falciparum [25]
  IC50: 3.3 nM
Plasmodium falciparum [26]
  IC50: 1.1 nM
Plasmodium falciparum [27]
  IC50: 2.1 nM
Plasmodium falciparum [28]
  IC50: 1.2 nM
Plasmodium falciparum [29]
  IC50: 3.4 nM
Plasmodium falciparum [30]
  IC50: 0.9 nM
Plasmodium falciparum [31]
  IC50: 1.2 nM
Plasmodium falciparum [32]
  IC50: 3 nM
Plasmodium falciparum [33]
  IC50: 1.4 nM
Plasmodium falciparum [34]
  IC50: 1.3 nM
Plasmodium falciparum [35]
  IC50: 1.6 nM
Plasmodium falciparum [36]
  IC50: 1.4 nM
Plasmodium falciparum [37]
  IC50: 3 nM
Plasmodium falciparum [38]
  IC50: 5.8 nM
Plasmodium falciparum [39]
  IC50: 1.4 nM
Plasmodium falciparum [40]
  IC50: 1.8 nM
Plasmodium falciparum [41]
  IC50: 1.5 nM
Plasmodium falciparum [42]
  IC50: 1.7 nM
Plasmodium falciparum [43]
  IC50: 1.7 nM

## CCNCc1cc(Nc2ccnc3cc(Cl)ccc23)ccc1O [DESETHYL AMODIAQUINE]
Plasmodium falciparum [12]
  IC50: 26 nM
Plasmodium falciparum [13]
  IC50: 135 nM
Plasmodium falciparum [14]
  IC50: 23 nM
Plasmodium falciparum [15]
  IC50: 314 nM
Plasmodium falciparum [17]
  IC50: 119 nM
Plasmodium falciparum [44]
  IC50: 32 nM
Plasmodium falciparum [45]
  IC50: 32 nM
Plasmodium falciparum [18]
  IC50: 104 nM
Plasmodium falciparum [46]
  IC50: 45 nM
Plasmodium falciparum [19]
  IC50: 123 nM
Plasmodium falciparum [20]
  IC50: 29 nM
Plasmodium falciparum [21]
  IC50: 27 nM
Plasmodium falciparum [22]
  IC50: 34 nM
Plasmodium falciparum [24]
  IC50: 20 nM
Plasmodium falciparum [25]
  IC50: 40 nM
Plasmodium falciparum [26]
  IC50: 52 nM
Plasmodium falciparum [27]
  IC50: 166 nM
Plasmodium falciparum [29]
  IC50: 113 nM
Plasmodium falciparum [30]
  IC50: 85 nM
Plasmodium falciparum [31]
  IC50: 82 nM
